The values below come from ChEMBL document CHEMBL5154644, “Design, Synthesis, and Structure-Activity Relationship Optimization of Pyrazolopyrimidine Amide Inhibitors of Phosphoinositide 3-Kinase γ (PI3Kγ)” (J Med Chem, 2022).

pIC50: −log10 of the molar value. Some results are limits rather than exact numbers.

T2 sequence (P48736 whole entry, canonical isoform): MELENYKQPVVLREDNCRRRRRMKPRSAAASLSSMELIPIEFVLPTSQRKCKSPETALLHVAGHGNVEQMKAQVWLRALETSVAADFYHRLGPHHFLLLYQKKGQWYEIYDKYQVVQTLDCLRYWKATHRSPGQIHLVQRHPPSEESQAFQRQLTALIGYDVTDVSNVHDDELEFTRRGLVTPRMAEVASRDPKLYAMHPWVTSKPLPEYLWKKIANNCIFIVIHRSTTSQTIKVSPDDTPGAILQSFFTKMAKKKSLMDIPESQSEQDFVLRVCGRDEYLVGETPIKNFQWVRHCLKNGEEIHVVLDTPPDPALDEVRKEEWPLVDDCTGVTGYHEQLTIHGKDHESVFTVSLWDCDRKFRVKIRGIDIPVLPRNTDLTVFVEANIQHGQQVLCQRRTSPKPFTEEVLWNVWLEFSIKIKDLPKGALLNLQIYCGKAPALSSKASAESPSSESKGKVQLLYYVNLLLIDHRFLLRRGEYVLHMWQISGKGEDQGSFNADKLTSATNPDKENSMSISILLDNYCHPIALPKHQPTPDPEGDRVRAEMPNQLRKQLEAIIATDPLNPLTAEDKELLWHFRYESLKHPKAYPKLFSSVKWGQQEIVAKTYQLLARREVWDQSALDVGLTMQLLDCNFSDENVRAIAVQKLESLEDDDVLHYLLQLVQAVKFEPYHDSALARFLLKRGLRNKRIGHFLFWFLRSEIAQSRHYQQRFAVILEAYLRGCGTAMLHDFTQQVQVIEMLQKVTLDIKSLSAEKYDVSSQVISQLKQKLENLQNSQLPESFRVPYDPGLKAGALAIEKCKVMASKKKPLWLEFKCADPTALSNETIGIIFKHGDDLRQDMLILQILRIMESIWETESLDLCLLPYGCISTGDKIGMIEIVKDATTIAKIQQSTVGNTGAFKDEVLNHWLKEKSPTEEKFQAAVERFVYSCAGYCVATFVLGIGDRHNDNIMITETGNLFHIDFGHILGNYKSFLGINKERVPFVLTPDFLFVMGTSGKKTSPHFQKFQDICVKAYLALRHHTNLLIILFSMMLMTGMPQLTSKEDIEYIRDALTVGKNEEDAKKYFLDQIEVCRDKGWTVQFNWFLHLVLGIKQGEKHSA
Chain of CYP3A4 (P08684 whole entry): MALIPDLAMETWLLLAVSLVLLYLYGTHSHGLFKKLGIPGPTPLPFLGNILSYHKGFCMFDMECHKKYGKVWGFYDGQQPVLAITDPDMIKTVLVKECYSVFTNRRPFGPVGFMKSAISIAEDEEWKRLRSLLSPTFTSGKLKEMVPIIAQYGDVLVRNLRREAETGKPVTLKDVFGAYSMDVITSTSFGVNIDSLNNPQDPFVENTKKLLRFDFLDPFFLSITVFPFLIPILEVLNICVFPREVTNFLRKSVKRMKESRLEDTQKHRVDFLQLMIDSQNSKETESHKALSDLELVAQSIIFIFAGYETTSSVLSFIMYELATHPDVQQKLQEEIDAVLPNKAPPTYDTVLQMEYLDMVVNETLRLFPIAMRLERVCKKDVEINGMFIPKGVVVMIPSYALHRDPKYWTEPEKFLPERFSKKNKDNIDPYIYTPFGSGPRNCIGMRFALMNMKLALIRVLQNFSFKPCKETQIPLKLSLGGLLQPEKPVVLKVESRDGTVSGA

The species entered for the first data set is Homo sapiens. In words: Selectivity ratio of IC50 for inhibition of PI3Kdelta (unknown origin) to IC50 for inhibition of PI3Kgamma (unknown origin).
Details: not given
For the molecule `COc1cc(-c2ccn3nc(N)c(C(=O)NC4CC4)c3n2)cc2c1C(=O)N([C@@H](C)C1CC1)C2`, the Ratio IC50 came out at 122.

For the molecule `CS(=O)(=O)Nc1cc(-c2ccn3nc(N)c(C(=O)NC4CC4)c3n2)cc2c1C(=O)N([C@@H](C1CC1)C(F)(F)F)C2`, the Ratio IC50 stood at 2780.

Consider `CC[C@H](N1Cc2cc(-c3ccn4nc(N)c(C(=O)NC5CC5)c4n3)cc(NS(C)(=O)=O)c2C1=O)C(F)(F)F`, for which the Ratio IC50 worked out at 403.

Turning to `CNS(=O)(=O)c1cc(-c2ccn3nc(N)c(C(=O)N[C@@H](CO)C4CC4)c3n2)cc2c1C(=O)N([C@@H](C)C(F)(F)F)C2`, the Ratio IC50 was found to be 65.

Another data set deals with T1, Phosphatidylinositol 4,5-bisphosphate 3-kinase catalytic subunit delta isoform (Homo sapiens, UniProt O00329).
T1 sequence (O00329 whole entry): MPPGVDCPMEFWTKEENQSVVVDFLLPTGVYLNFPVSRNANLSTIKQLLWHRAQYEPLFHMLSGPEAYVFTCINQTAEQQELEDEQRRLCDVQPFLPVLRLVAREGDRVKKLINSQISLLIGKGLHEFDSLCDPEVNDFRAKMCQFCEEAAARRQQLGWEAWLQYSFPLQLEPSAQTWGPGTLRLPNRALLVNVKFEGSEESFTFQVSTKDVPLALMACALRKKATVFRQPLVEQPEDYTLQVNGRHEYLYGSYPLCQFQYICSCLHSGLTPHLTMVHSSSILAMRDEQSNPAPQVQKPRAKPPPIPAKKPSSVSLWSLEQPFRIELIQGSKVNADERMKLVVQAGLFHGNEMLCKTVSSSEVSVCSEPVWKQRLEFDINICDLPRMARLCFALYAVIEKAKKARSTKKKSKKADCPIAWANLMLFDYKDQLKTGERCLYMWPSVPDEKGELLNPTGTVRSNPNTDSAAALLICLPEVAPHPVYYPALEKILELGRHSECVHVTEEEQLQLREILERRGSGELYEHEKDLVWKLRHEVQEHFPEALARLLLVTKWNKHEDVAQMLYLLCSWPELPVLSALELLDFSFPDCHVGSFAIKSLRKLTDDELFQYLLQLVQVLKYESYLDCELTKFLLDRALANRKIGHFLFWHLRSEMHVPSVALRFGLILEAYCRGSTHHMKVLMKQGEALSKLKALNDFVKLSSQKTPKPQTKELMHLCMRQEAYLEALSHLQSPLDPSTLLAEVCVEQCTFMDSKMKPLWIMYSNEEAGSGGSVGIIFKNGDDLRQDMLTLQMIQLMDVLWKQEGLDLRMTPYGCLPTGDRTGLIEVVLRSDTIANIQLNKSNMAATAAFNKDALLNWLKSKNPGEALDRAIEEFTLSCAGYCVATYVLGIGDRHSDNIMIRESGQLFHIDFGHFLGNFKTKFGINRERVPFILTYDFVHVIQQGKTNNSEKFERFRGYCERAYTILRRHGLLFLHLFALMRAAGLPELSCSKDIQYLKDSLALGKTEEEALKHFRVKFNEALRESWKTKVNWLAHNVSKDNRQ
The data set is described as follows: Inhibition of PI3Kdelta (unknown origin) using PIP2 as substrate preincubated for 1 hr followed by substrate addition and measured after 60 mins in presence of ATP by ADP-glo assay.
Details: not given
For orientation: In ADP-Glo the light output rises with the ADP produced.
One may read the pIC50 as the IC50 on a negative log10 scale, so that one unit is a factor of ten. As for `COc1cc(-c2ccn3nc(N)c(C(=O)NC4CC4)c3n2)cc2c1C(=O)N([C@@H](C)C1CC1)C2`, the pIC50 was 6.34.

Consider `CS(=O)(=O)Nc1cc(-c2ccn3nc(N)c(C(=O)NC4CC4)c3n2)cc2c1C(=O)N([C@@H](C1CC1)C(F)(F)F)C2`, for which the pIC50 is 5.34.

`CC[C@H](N1Cc2cc(-c3ccn4nc(N)c(C(=O)NC5CC5)c4n3)cc(NS(C)(=O)=O)c2C1=O)C(F)(F)F`: the pIC50 is 5.88.

In the case of `CNS(=O)(=O)c1cc(-c2ccn3nc(N)c(C(=O)N[C@@H](CO)C4CC4)c3n2)cc2c1C(=O)N([C@@H](C)C(F)(F)F)C2`, the pIC50 was 7.07.

Tested on in a further data set: not listed separately
The data set is described as follows: Metabolic stability in human hepatocytes assessed as intrinsic clearance per 10^6 cells at 0.5 uM by LC-MS/MS analysis. It is filed as ADME, cell-based, Hepatocyte. The conditions noted are these: read-out: CLH.
For the molecule `COc1cc(-c2ccn3nc(N)c(C(=O)NC4CC4)c3n2)cc2c1C(=O)N([C@@H](C)C1CC1)C2`, the hepatocyte CLint at 0.5 µM came out at 1.81 µL/min/1e6 cells.

Turning to `CS(=O)(=O)Nc1cc(-c2ccn3nc(N)c(C(=O)NC4CC4)c3n2)cc2c1C(=O)N([C@@H](C1CC1)C(F)(F)F)C2`, the hepatocyte CLint at 0.5 µM was less than 1.2 µL/min/1e6 cells.

In the case of `CC[C@H](N1Cc2cc(-c3ccn4nc(N)c(C(=O)NC5CC5)c4n3)cc(NS(C)(=O)=O)c2C1=O)C(F)(F)F`, the hepatocyte CLint at 0.5 µM was 2.91 µL/min/1e6 cells.

Consider `CNS(=O)(=O)c1cc(-c2ccn3nc(N)c(C(=O)N[C@@H](CO)C4CC4)c3n2)cc2c1C(=O)N([C@@H](C)C(F)(F)F)C2`, for which the hepatocyte CLint at 0.5 µM worked out at 1.61 µL/min/1e6 cells.

Another data set has as its target T2, Phosphatidylinositol 4,5-bisphosphate 3-kinase catalytic subunit gamma isoform (Homo sapiens, UniProt P48736). In words: Inhibition of PI3Kgamma (unknown origin) in […] stimulated human THP-1 cells assessed as reduction in Akt phosphorylation level at Ser473 residue preincubated for 60 mins followed by rhMCP-1 stimulation and measured after 2 mins by AlphaLisa assay.
Details: not given
It counts as cell-based. On the technique in general: Alpha assays give light when donor and acceptor beads are brought close together.
Consider `COc1cc(-c2ccn3nc(N)c(C(=O)NC4CC4)c3n2)cc2c1C(=O)N([C@@H](C)C1CC1)C2`, for which the pIC50 was 6.92.

As for `CS(=O)(=O)Nc1cc(-c2ccn3nc(N)c(C(=O)NC4CC4)c3n2)cc2c1C(=O)N([C@@H](C1CC1)C(F)(F)F)C2`, the pIC50 is 7.06.

Turning to `CC[C@H](N1Cc2cc(-c3ccn4nc(N)c(C(=O)NC5CC5)c4n3)cc(NS(C)(=O)=O)c2C1=O)C(F)(F)F`, the pIC50 is 7.51.

For the molecule `CNS(=O)(=O)c1cc(-c2ccn3nc(N)c(C(=O)N[C@@H](CO)C4CC4)c3n2)cc2c1C(=O)N([C@@H](C)C(F)(F)F)C2`, the pIC50 is 7.02.

Tested on in a further data set: not listed separately
The data set is described as follows: Metabolic stability in rat hepatocyte assessed as intrinsic clearance per 10^8 cells at 0.5 uM by LC-MS/MS analysis. The conditions noted are these: hepatocytes. It counts as ADME, cell-based.
Take `COc1cc(-c2ccn3nc(N)c(C(=O)NC4CC4)c3n2)cc2c1C(=O)N([C@@H](C)C1CC1)C2`: the hepatocyte intrinsic clearance came to 2.07 µL/min.

For `CS(=O)(=O)Nc1cc(-c2ccn3nc(N)c(C(=O)NC4CC4)c3n2)cc2c1C(=O)N([C@@H](C1CC1)C(F)(F)F)C2`, the hepatocyte intrinsic clearance is less than 1.2 µL/min.

Turning to `CC[C@H](N1Cc2cc(-c3ccn4nc(N)c(C(=O)NC5CC5)c4n3)cc(NS(C)(=O)=O)c2C1=O)C(F)(F)F`, the hepatocyte intrinsic clearance was determined as 6.67 µL/min.

Turning to `CNS(=O)(=O)c1cc(-c2ccn3nc(N)c(C(=O)N[C@@H](CO)C4CC4)c3n2)cc2c1C(=O)N([C@@H](C)C(F)(F)F)C2`, the hepatocyte intrinsic clearance came out at 3.82 µL/min.

The next data set deals with T2, Phosphatidylinositol 4,5-bisphosphate 3-kinase catalytic subunit gamma isoform. In words: Inhibition of PI3Kgamma (unknown origin) using PIP2 as substrate preincubated for 1 hr followed by substrate addition and measured after 60 mins in presence of ATP by ADP-glo assay.
Details: not given
Take `COc1cc(-c2ccn3nc(N)c(C(=O)NC4CC4)c3n2)cc2c1C(=O)N([C@@H](C)C1CC1)C2`: the pIC50 was 8.42.

For `CS(=O)(=O)Nc1cc(-c2ccn3nc(N)c(C(=O)NC4CC4)c3n2)cc2c1C(=O)N([C@@H](C1CC1)C(F)(F)F)C2`, the pIC50 was 8.77.

Take `CC[C@H](N1Cc2cc(-c3ccn4nc(N)c(C(=O)NC5CC5)c4n3)cc(NS(C)(=O)=O)c2C1=O)C(F)(F)F`: the pIC50 was 8.48.

In the case of `CNS(=O)(=O)c1cc(-c2ccn3nc(N)c(C(=O)N[C@@H](CO)C4CC4)c3n2)cc2c1C(=O)N([C@@H](C)C(F)(F)F)C2`, the pIC50 was 8.89.

For a further data set, the target named is Phosphatidylinositol 4,5-bisphosphate 3-kinase catalytic subunit alpha isoform (Homo sapiens, UniProt P42336). In words: Inhibition of PI3Kalpha (unknown origin) using PIP2 as substrate preincubated for 1 hr followed by substrate addition and measured after 60 mins in presence of ATP by ADP-glo assay.
Chain of Phosphatidylinositol 4,5-bisphosphate 3-kinase catalytic subunit alpha isoform (P42336 whole entry, canonical isoform): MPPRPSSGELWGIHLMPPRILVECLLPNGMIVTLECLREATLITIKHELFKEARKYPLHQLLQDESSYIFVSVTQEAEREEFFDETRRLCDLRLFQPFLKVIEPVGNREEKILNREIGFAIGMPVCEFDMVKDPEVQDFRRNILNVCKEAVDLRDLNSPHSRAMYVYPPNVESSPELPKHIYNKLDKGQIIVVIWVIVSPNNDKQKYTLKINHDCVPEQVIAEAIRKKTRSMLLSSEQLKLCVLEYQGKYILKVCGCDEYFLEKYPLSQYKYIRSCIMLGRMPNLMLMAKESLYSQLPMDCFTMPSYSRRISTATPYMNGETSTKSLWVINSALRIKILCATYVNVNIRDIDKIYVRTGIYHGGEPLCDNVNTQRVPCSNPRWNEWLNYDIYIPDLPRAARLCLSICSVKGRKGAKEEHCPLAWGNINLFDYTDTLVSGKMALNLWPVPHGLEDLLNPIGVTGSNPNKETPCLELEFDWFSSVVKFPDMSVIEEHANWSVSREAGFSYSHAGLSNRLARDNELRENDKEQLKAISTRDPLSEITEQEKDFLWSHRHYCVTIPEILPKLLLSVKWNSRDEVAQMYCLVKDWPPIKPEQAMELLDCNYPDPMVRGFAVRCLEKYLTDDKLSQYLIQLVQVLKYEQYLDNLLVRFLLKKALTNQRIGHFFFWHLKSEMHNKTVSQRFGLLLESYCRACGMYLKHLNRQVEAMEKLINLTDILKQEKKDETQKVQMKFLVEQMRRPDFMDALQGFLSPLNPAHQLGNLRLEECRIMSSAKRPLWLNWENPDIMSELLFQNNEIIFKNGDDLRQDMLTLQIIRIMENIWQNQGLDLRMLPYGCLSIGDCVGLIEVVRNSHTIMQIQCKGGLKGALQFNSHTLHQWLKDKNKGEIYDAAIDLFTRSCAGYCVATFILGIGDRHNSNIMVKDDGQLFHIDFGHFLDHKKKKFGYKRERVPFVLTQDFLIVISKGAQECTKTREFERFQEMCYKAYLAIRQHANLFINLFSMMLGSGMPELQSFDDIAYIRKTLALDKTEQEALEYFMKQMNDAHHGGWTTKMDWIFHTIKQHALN
Details: not given
With `COc1cc(-c2ccn3nc(N)c(C(=O)NC4CC4)c3n2)cc2c1C(=O)N([C@@H](C)C1CC1)C2`, the pIC50 was 6.55.

Take `CS(=O)(=O)Nc1cc(-c2ccn3nc(N)c(C(=O)NC4CC4)c3n2)cc2c1C(=O)N([C@@H](C1CC1)C(F)(F)F)C2`: the pIC50 was 5.27.

On to `CC[C@H](N1Cc2cc(-c3ccn4nc(N)c(C(=O)NC5CC5)c4n3)cc(NS(C)(=O)=O)c2C1=O)C(F)(F)F`, for which the pIC50 was 5.55.

On to `CNS(=O)(=O)c1cc(-c2ccn3nc(N)c(C(=O)N[C@@H](CO)C4CC4)c3n2)cc2c1C(=O)N([C@@H](C)C(F)(F)F)C2`, for which the negative logarithm of the IC50 (pIC50) was 6.44.

The next data set is filed under the species Homo sapiens. In words: Selectivity ratio of IC50 for inhibition of PI3Kalpha (unknown origin) to IC50 for inhibition of PI3Kgamma (unknown origin).
Details: not given
For `COc1cc(-c2ccn3nc(N)c(C(=O)NC4CC4)c3n2)cc2c1C(=O)N([C@@H](C)C1CC1)C2`, the Ratio IC50 amounted to 74.

With `CNS(=O)(=O)c1cc(-c2ccn3nc(N)c(C(=O)N[C@@H](CO)C4CC4)c3n2)cc2c1C(=O)N([C@@H](C)C(F)(F)F)C2`, the Ratio IC50 is 274.

The next data set has as its target CYP3A4 (Homo sapiens, UniProt P08684). In words: in vitro. The conditions noted are these: human liver microsomes, probe midazolam. (In general: Liver microsomes are vesicles of endoplasmic reticulum, rich in cytochrome P450 enzymes.)
Description: Time dependent inhibition of CYP3A4 in human liver microsomes at 10 uM using midazolam as substrate preincubated for 30 mins in presence of NADPH by LC/MS/MS analysis relative to control
In general, inhibition refers to the percentage by which the read-out fell short of the control. Lower therefore signals little suppression. Molecule `COc1cc(-c2ccn3nc(N)c(C(=O)NC4CC4)c3n2)cc2c1C(=O)N([C@@H](C)C1CC1)C2` registered an inhibition at 30 min, 10 µM of 28%.

Consider `CS(=O)(=O)Nc1cc(-c2ccn3nc(N)c(C(=O)NC4CC4)c3n2)cc2c1C(=O)N([C@@H](C1CC1)C(F)(F)F)C2`, for which the inhibition at 30 min, 10 µM was determined as 22%.

As for `CC[C@H](N1Cc2cc(-c3ccn4nc(N)c(C(=O)NC5CC5)c4n3)cc(NS(C)(=O)=O)c2C1=O)C(F)(F)F`, the inhibition at 30 min, 10 µM is 62%.
